For one data set, the system named is IL-1β. Put plainly: THP-1 AlphaLISA IL-1β cytokine assay. The settings on record: Homo sapiens, differentiated THP-1 cells. In kind it is cell-based. In outline: (§1)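 THP-1 cells differentiated 72 h with PMA, pre-incubated 30 min with compounds, stimulated 24 h with LPS, then 1 h with nigericin, all at 37 °C. Supernatant cytokine measured by AlphaLISA; % inhibition normalised to ±LPS controls and IC50 taken from concentration-response curves.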
For orientation: In Alpha technology, singlet oxygen from a donor bead excites a nearby acceptor bead.

A further data set has as its system IL-6. Nature of the data set: THP-1 AlphaLISA IL-6 cytokine assay. In kind it is cell-based. The settings on record: Homo sapiens, THP-1, differentiated THP-1 cells. In outline: as §1
Another data set concerns NRF2. Nature of the data set: NRF2 activation assay (DiscoverX PathHunter NRF2 translocation kit, U2OS cells). It is filed as cell-based. In a few lines: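 PathHunter U2OS cells, grown 24 h at 37 °C/5% CO2, treated 6 h with compound; NRF2 nuclear translocation read as enzyme-fragment-complementation chemiluminescence. Activation normalised to dimethyl fumarate high and untreated low controls; EC50 from concentration-response curve.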

Data set [1] can be described thus: Hepatocyte stability assay, human. It is filed as in vitro ADME. The conditions noted are these: cryopreserved hepatocytes, 10 μM compound. In outline:
(§2)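 Cryopreserved hepatocytes (viability >70%) at 0.5×10^6 cells/mL in Leibovitz buffer, preincubated 10 min at 37 °C, then compound at 10 μM (0.1% DMSO) in duplicate; buffer-only incubations as control. Samples at 0-60 min quenched in acetonitrile, analysed by LC-MS/MS; half-life and CLint (μL min^−1 10^−6 cells) from ln % remaining versus time.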

Data set [2] has as its system hepatocytes. Put plainly: Hepatocyte stability assay, human. The settings on record: 10 μM compound. It is filed as in vitro ADME. In outline:
as §2

Data set [3] in a line: Hepatocyte stability assay, mouse. In kind it is in vitro ADME. The conditions noted are these: mouse, cryopreserved hepatocytes, 10 μM compound. In outline:
as §2

Data set [4] relates to hepatocytes. Nature of the data set: Hepatocyte stability assay, mouse. It is filed as in vitro ADME. The settings on record: 10 μM compound. In a few lines: as §2
The mark [5] stands for this setting: Table 2, compounds of formula (II).
Where [6] appears, read: +GSH, Table 4, compounds of formula (II).
[7] abbreviates: −GSH, Table 4, compounds of formula (II).

The structures appear in SMILES notation.

A word on the IC50: it is the concentration that inhibits the measured activity by half. Low readings indicate greater potency in that assay, high ones weaker potency in that assay. For orientation: EC50 means the concentration needed to bring the measured effect to its halfway point. Low readings indicate an effect from little substance, high ones a need for much substance.

On to `O=C(O)/C=C/C(=O)OC1(c2cc(Cl)cc(Cl)c2)CCC1` [Intermediate 14, (E)-4-(1-(3,5-dichlorophenyl)cyclobutoxy)-4-oxobut-2-enoic acid], for which the concentration for half-maximal inhibition (IC50) is 6 to 30 µM in the data set with IL-1β (setting [5]) and < 6 µM in the data set on IL-6 (setting [5]). Also, the EC50 in the data set on NRF2 (setting [6]) and with NRF2 (setting [7]) was < 23 µM in each case. In addition, the “NRF2 activation Emax” value in the data set on NRF2 (setting [6]) and with NRF2 (setting [7]) was “++++ (++++ means >150%)” throughout. Further, the half-life at 10 μM in data set [1] (Table 6, read-out: T½) is > 100 min; in data set [3] (Table 6, read-out: T½) it was 5 to 29 min. The CIint result is “++++ (++++ means 5-15)” in the data set with hepatocytes [2] (Table 6) and “++ (++ means >30-110)” in the data set with hepatocytes [4] (Table 6).
Take `O=C(O)COC(=O)/C=C/C(=O)OC1CCCCCCC1` [Example 1, (E)-2-((4-(cyclooctyloxy)-4-oxobut-2-enoyl)oxy)acetic acid]: the IC50 with IL-1β (LPS then Nigericin, Table 1) is 2.5 to 6.1 µM; in the data set on IL-6 (LPS then Nigericin, Table 1), < 2.5 µM. Further, the EC50 in the data set on NRF2 (+GSH, Table 3) was 6 to 20 µM; with NRF2 (−GSH, Table 3), < 2 µM. Moreover, the “NRF2 activation Emax” value in the data set with NRF2 (+GSH, normalised to dimethyl fumarate high control, Table 3) is reported as “++ (++ means 100-149)”; in the data set on NRF2 (−GSH, normalised to dimethyl fumarate high control, Table 3), “++++ (++++ means 200-250%)”. For the same compound, the half-life at 10 μM in data set [1] (Table 5, read-out: T½) was 30 to 100 min; in data set [3] (Table 5, read-out: T½), < 5 min. Also, the CIint entry with hepatocytes [2] (Table 5) is reported as “++++ (++++ means <50)”; in the data set on hepatocytes [4] (Table 5), “+ (+ means >277)”.
In the case of `O=C(O)/C=C/C(=O)OC1(c2ccc(C(F)(F)F)c(F)c2)CCC1` [Intermediate 16, (E)-4-(1-(3-fluoro-4-(trifluoromethyl)phenyl)cyclobutoxy)-4-oxobut-2-enoic acid], the IC50 in the data set with IL-1β (setting [5]) and with IL-6 (setting [5]) was < 6 µM each time. The concentration giving a half-maximal response (EC50) in the data set with NRF2 (setting [6]) and in the data set on NRF2 (setting [7]) was < 23 µM each time. Besides, the “NRF2 activation Emax” value with NRF2 (setting [6]) was “+++ (+++ means >114-150%)”; in the data set with NRF2 (setting [7]), “++++ (++++ means >150%)”. Besides, the half-life at 10 μM in data set [1] (Table 6, read-out: T½) is > 100 min; in data set [3] (Table 6, read-out: T½), 30 to 100 min. The CIint result with hepatocytes [2] (Table 6) and with hepatocytes [4] (Table 6) was “+++ (+++ means >15-30)” throughout.

Values taken from US20240010606A1, “FUMARATE DERIVATIVES AND THEIR MEDICAL USE” (Sitryx Therapeutics Limited, priority 2020, published 2024).
